According to article PMC4997821, “The Lantibiotic NAI-107 Efficiently Rescues Drosophila melanogaster from Infection with Methicillin-Resistant Staphylococcus aureus USA300” (Antimicrobial Agents and Chemotherapy, 2016):
≈ marks a conversion by molar mass, not a printed value. Where a name gives a salt, the structure may show the parent alone. Read-outs that look alike come from different tables or passages of the source. Residues, ends and D or L forms follow the SMILES beside them.

Assays:
[1] = test system: S. aureus 8325-4; assay: Drosophila injection assay, survival of infected flies; type: in vivo, Drosophila melanogaster; conditions: >1,000× MIC, injection 3 h postinfection, 70-h period
Protocol: (§1) Injection assays were performed as previously described ([33]) by using a Nanoject-II microinjecter, but with minor modifications in the preparation of bacterial inoculums to obtain balanced cultures, as explained above. Flies were reared on standard Bloomington formulation at 25°C under a 12-h–12-h light-dark cycle and constant humidity. Adult Oregon R male flies (4 to 7 days old) were used for all injection experiments. Initial experiments with strain 8325-4 were performed in duplicate, with groups of 25 to 30 animals in each experiment. For USA300, experiments were performed in triplicate, except for the nisin experiment, which was done only in duplicate. The inoculum was prepared by resuspending cells in 10 mM MgSO4 vehicle (VEH) to an OD600 of 0.06 and was kept on ice, giving an inoculum dose of 100 to 450 CFU (8325-4) or 200 to 700 CFU (USA300) in the flies after injection of 18.4 nl. […] After injection of bacteria, flies were kept at 29°C and monitored for 48 to 96 h to determine mortality. […] It is important that when drug concentrations were calculated, we performed a rough approximation of the fluid content of a fly. Fly fluid content was measured by drying out 10 groups of 50 flies each and comparing dry weight to wet weight. […]

[2] = test system: S. aureus 8325-4; assay: microbe, parasite or virus in culture; type: cell-based, Staphylococcus aureus
Protocol: (§2) S. aureus strains 8325-4 ([35]) and USA300 ([36]) were used as indicated for the individual experiments. Bacterial cultures were grown in cation-adjusted Mueller-Hinton broth (MHB-II) at the indicated temperature.
(§3) MICs of all tested compounds were determined according to protocols using broth microdilution methodology ([46]), with minor modifications. S. aureus was grown in 10 ml MHB-II overnight at 37°C with shaking and then diluted 1:100 in fresh MHB-II and grown to an OD600 of 0.2 to 0.4. Cultures were then diluted 1:10 and grown to an OD600 of 0.2 to 0.4. These steps were performed to ensure balanced exponentially growing cultures as explained above. Finally, cultures were diluted to 1 × 10^6 CFU ml^−1 and further diluted 1:1 in microtiter plates in MHB-II with drug, leading to a final inoculum of 5 × 10^5 CFU ml^−1. MICs were determined in triplicate, and if more than one value was found, the highest was set as the MIC to keep the calculations conservative.

[3] = test system: Drosophila melanogaster; assay: Survival of uninfected control flies injected with VEH and drug; type: in vivo
Protocol: Injection assays were performed as previously described ([33]) by using a Nanoject-II microinjecter, but with minor modifications in the preparation of bacterial inoculums to obtain balanced cultures, as explained above. Flies were reared on standard Bloomington formulation at 25°C under a 12-h–12-h light-dark cycle and constant humidity. Adult Oregon R male flies (4 to 7 days old) were used for all injection experiments. Initial experiments with strain 8325-4 were performed in duplicate, with groups of 25 to 30 animals in each experiment. For USA300, experiments were performed in triplicate, except for the nisin experiment, which was done only in duplicate. The inoculum was prepared by resuspending cells in 10 mM MgSO4 vehicle (VEH) to an OD600 of 0.06 and was kept on ice, giving an inoculum dose of 100 to 450 CFU (8325-4) or 200 to 700 CFU (USA300) in the flies after injection of 18.4 nl. Bacterial and VEH injections were administered in the soft tissue surrounding the front legs, and drug treatment was administered in the lower thorax at 3 h postinfection. After injection of bacteria, flies were kept at 29°C and monitored for 48 to 96 h to determine mortality. Drug delivery was performed at the concentrations indicated for individual experiments. Flies which died within 3 h postinjection were considered to have died from handling and were disregarded. It is important that when drug concentrations were calculated, we performed a rough approximation of the fluid content of a fly. Fly fluid content was measured by drying out 10 groups of 50 flies each and comparing dry weight to wet weight. […] For simplicity and because we assumed that the compounds would not be distributed to all fluids, we used 0.5 μl fluid as our measure for calculating drug concentrations in the flies. Further, we assumed a rapid distribution of the compound in the open circulatory system of Drosophila and a slow clearance of the compounds by Malpighian tubules. Therefore, drug concentrations are given as the highest concentrations obtained, in multiples of the MIC.
Plotting of data was performed using GraphPad Prism 5. All in vivo survival plots were created using Kaplan-Meier analysis of pooled data for repetitive experiments. Statistical analysis was carried out with the log rank (Mantel-Cox) test for comparison of survival curves. Experiments with P values of <0.05 were considered to be significant and are stated in Results. Statistical analysis was performed on the counts of CFU per fly for the different treatment groups by using one-way analysis of variance (ANOVA) (Kruskal-Wallis test) with Dunn's multiple-comparison test for comparison of individual groups. Relevant statistical results are stated in Results.

[4] = test system: Drosophila melanogaster; assay: Adverse behavioral response (paralysis) after injection; type: in vivo; conditions: flies injected with high concentrations (data not shown); uncoordinated movements, inability to walk or fly
Protocol: as §1

[5] = test system: S. aureus USA300 (MRSA); assay: MIC testing, broth microdilution; type: cell-based; conditions: Staphylococcus aureus
Protocol: as §2, §3

[6] = test system: S. aureus USA300; assay: Bacterial titers (CFU per fly) after treatment; type: in vivo, Drosophila melanogaster; conditions: USA300-infected flies, treatment 3 h postinfection
Protocol: The growth rates of S. aureus strains were examined at 37°C in vitro to determine the growth period required to obtain balanced cultures, here defined as cultures grown exponentially for no fewer than 6 generations. Prior to injection of bacteria into the in vivo fly model, the inoculums were prepared as balanced cultures grown at 37°C. Since flies used for in vivo infections were kept at 29°C, the bacterial in vitro generation time was also determined at this temperature. In vitro growth rates were defined for growth in MHB-II by measurements of the optical density at 600 nm (OD600) at 10-min intervals. Furthermore, we determined the in vivo generation time based on CFU per animal by counting the CFU at various time points by homogenizing flies infected with bacteria and plating the homogenates on mannitol salt agar (MSA). This was performed in triplicate experiments; 3 individual flies were crushed in phosphate-buffered saline (PBS), and 10× dilution series were prepared, from which 10 μl each was spot plated on MSA in triplicate. The mean value for each experiment was determined as the number of CFU per fly and plotted. […] It should also be noted that drug treatment was performed at 3 h postinfection and that the number of CFU per fly for this time point was determined prior to treatment. […]

[7] = test system: MRSA USA300; assay: Drosophila injection assay, survival of infected flies; type: in vivo, Drosophila melanogaster; conditions: 10× MIC, 3 h postinfection, 96-h period
Protocol: as §1

[8] = broth microdilution, MHB-II, final inoculum 5 × 10^5 CFU ml^−1, triplicate, highest value set as MIC
[9] = calculated from MIC in μg ml^−1 with the mol wt of the table, read-out: MIC (μM) 8325-4
[10] = 8325-4, read-out: MIC (μM) 8325-4
[11] = at the concentrations tested, not given

Row | SMILES | Adverse behavioral response that may indicate neurotoxicity [4] | MIC (μg ml^−1) 8325-4 [2, 8] [µg/mL] | MIC [2, 9] [µM] | MIC (μg ml^−1) 8325-4 ([2]; 8325-4) [µg/mL] | MIC [2, 10] [µM] | Effect on survival of control animals [3, 11] | other results
1 | CC1(C)S[C@@H]2[C@H](NC(=O)[C@H](N)c3ccccc3)C(=O)N2[C@H]1C(=O)O [Ampicillin, Ampicillin sodium salt, reference compound] |  |  |  |  |  |  | Effect on survival of 8325-4-infected flies [1]: efficiently promoted survival; MIC ([2]; Staphylococcus aureus, 83254, broth microdilution, MHB-II, final inoculum 5 × 10^5 CFU ml^−1, triplicate, highest value set as MIC, read-out: MIC (μg ml^−1) 8325-4): 0.01 µg/mL; MIC ([2]; Staphylococcus aureus, 83254, calculated from MIC in μg ml^−1 with the mol wt of the table, read-out: MIC (μM) 8325-4): 2.86 µM; Effect on survival of control animals ([3]; >1,000× MIC, 70-h period): no lethal effects on control animals
2 | CC[C@H](C)[C@H](NC(=O)[C@H](Cc1c[nH]c2ccccc12)NC(=O)[C@H](CCCNC(=N)N)NC(=O)[C@H](Cc1c[nH]c2ccccc12)NC(=O)[C@H](Cc1c[nH]c2ccccc12)NC(=O)[C@H](CCCNC(=N)N)NC(=O)[C@H](CCCCN)NC(=O)[C@H](Cc1c[nH]c2ccccc12)NC(=O)[C@@H](N)CCCNC(=N)N)C(N)=O [GN-2] (H-RWKRWWRWI-NH2) | partially paralyzed for up to 10 h postinjection | 8 (≈ 5.44 µM) | 5.43 |  |  |  | 
3 | CC(C)C[C@H](NC(=O)[C@H](Cc1c[nH]c2ccccc12)NC(=O)[C@H](CCCNC(=N)N)NC(=O)[C@H](Cc1c[nH]c2ccccc12)NC(=O)[C@H](Cc1c[nH]c2ccccc12)NC(=O)[C@H](CCCCN)NC(=O)[C@H](CCCCN)NC(=O)[C@H](Cc1c[nH]c2ccccc12)NC(=O)[C@@H](N)CCCNC(=N)N)C(N)=O [GN-4] (H-RWKKWWRWL-NH2) | partially paralyzed for up to 10 h postinjection | 4 (≈ 2.77 µM) | 2.77 |  |  |  | Effect on survival of control animals ([3]; 10× MIC in fly, compared with VEH-injected flies): no detrimental effects on survival of flies
4 | CC(C)C[C@H](NC(=O)[C@H](Cc1c[nH]c2ccccc12)NC(=O)[C@H](Cc1c[nH]c2ccccc12)NC(=O)[C@H](CCCCN)NC(=O)[C@H](Cc1c[nH]c2ccccc12)NC(=O)[C@H](CCCNC(=N)N)NC(=O)[C@H](CCCNC(=N)N)NC(=O)[C@H](Cc1c[nH]c2ccccc12)NC(=O)[C@@H](N)CCCNC(=N)N)C(N)=O [HHC-9] (H-RWRRWKWWL-NH2) |  |  |  | 4 (≈ 2.72 µM) | 2.71 | no obvious detrimental effects on survival | 
5 | N=C(N)NCCC[C@H](NC(=O)[C@H](CCCNC(=N)N)NC(=O)[C@H](Cc1c[nH]c2ccccc12)NC(=O)[C@H](Cc1c[nH]c2ccccc12)NC(=O)[C@H](CCCCN)NC(=O)[C@H](Cc1c[nH]c2ccccc12)NC(=O)[C@H](Cc1c[nH]c2ccccc12)NC(=O)[C@H](CCCNC(=N)N)NC(=O)[C@@H](N)CCCCN)C(N)=O [HHC-36] (H-KRWWKWWRR-NH2) |  |  |  | 8 (≈ 5.38 µM) | 5.38 | no obvious detrimental effects on survival | 
6 | CN[C@H](CC(C)C)C(=O)N[C@H]1C(=O)N[C@@H](CC(N)=O)C(=O)N[C@H]2C(=O)N[C@H]3C(=O)N[C@H](C(=O)N[C@H](C(=O)O)c4cc(O)cc(O)c4-c4cc3ccc4O)[C@H](O)c3ccc(c(Cl)c3)Oc3cc2cc(c3O[C@@H]2O[C@H](CO)[C@@H](O)[C@H](O)[C@H]2O[C@H]2C[C@](C)(N)[C@H](O)[C@H](C)O2)Oc2ccc(cc2Cl)[C@H]1O [Vancomycin, vancomycin hydrochloride] |  |  |  |  |  | no adverse effect on survival of control animals | MIC ([5]; read-out: MIC (μM) USA300): 1.38 µM; MIC ([5]; read-out: MIC (μg ml^−1) USA300): 2 µg/mL; Bacterial load compared to that with nisin treatment after 24 h [6]: significantly reduced the bacterial load; Proliferation of bacteria inside the animals ([6]; CFU per fly at 0, 3, 12, 24 h on MSA): clearly disrupted the proliferation of bacteria; Survival of USA300-infected animals compared with NAI-107 at 100× MIC [7]: equivalent
